Tests used:
Format in all cases: in vivo, mouse
[1] = test system: Aldehyde dehydrogenase (ALDH); experiment: Aldefluor FACS analysis of dendritic cells from mesenteric lymph nodes after oral tolerance induction; details: eight weeks after oral tolerance induction in TAC-operated mice; vs PBS alone
Description: Briefly, eight weeks after oral tolerance induction in TAC-operated mice, mesenteric lymph nodes (MLN) were collected and dendritic cells (DC) were isolated for FACS analysis. Aldehyde dehydrogenase (ALDH) production of retinoic acid from the DC was measured via Aldefluor Fluorescent dye. FACS analysis of DC isolated from MLN of mice fed with the peptides of SEQ ID NO. […] Retinoic acid produced by tolerogenic DC contributes to Regulatory T cell (Treg) generation, essential for tolerance induction. […] Data are plotted as mean±SEM, (n=7-8). Unpaired t-test. * p<0.05.

TAC-operated mice = experiment: Oral tolerance protocol followed by induction of Heart Failure via TAC, echocardiography; details: oral gavage 0.8 mg per day of each peptide for 4 days, TAC on day 7; 8 weeks after surgery; vs PBS alone
Description: To assess preventive protection potential of oral tolerance with the newly identified peptides from the development of Heart Failure, the inventors pursued an oral tolerance protocol to induce cardio-specific tolerance for the peptides, followed by active induction of Heart Failure via TAC.
Briefly, C57BL6/J 8-week-old male mice were screened at baseline via echocardiography. Each mouse was orally fed with 0.8 mg of each peptide from group 4: the peptide of SEQ ID NO. 1 (14-3-3 protein), the peptide of SEQ ID NO. 5 (Snrpd1 protein), and the peptide of SEQ ID NO. 14 (Atp5o protein) (i.e. 0.8 mg per day of each peptide, thus 2.4 mg/day in total), diluted in 600 μl of Phosphate Buffered-Saline (PBS) or plain PBS (as control) via oral feeding (oral gavage) for 4 days in a row. Three days after the end of this procedure, on day 7, the mice underwent TAC surgery, to experimentally induce Heart Failure. Echocardiographies were performed on both groups of mice to monitor their cardiac functionality at 2, 4 and 8 weeks after TAC-surgery. […] Data were plotted as mean±SEM, (n=8-11). Two-way ANOVA and Tukey's multiple comparison test with matching subjects. ** p<0.01, ***p<0.001.

C57BL6/J mice [2] = experiment: Immunization of healthy mice with pooled peptides in CFA/IFA, echocardiography; details: echocardiography at 2, 5 and 9 weeks after first subcutaneous injection; 100 μg of each peptide in CFA day 0, IFA boost day 21; vs CTR- (only CFA)
Description: In order to validate the functional relevance of identified antigens recognized by T cells driving HF, the inventors conducted the experiments as described below and schematically represented in FIG. 5.
Briefly, C57BL6/J 8-week-old male mice were screened, via echocardiography, at baseline for heart functionality and randomly divided into three experimental groups. Mice belonging to the negative control group (CTR−, only CFA) were injected subcutaneously (immunized) with 100 μl Complete Freud's Adjuvant (CFA) at day 0 and boosted with 100 μl of Incomplete Freud's Adjuvant (IFA) on day 21, without any antigen. […] Heart functionality of all mice was analyzed via echocardiography at 2, 5 and 9 weeks after the first subcutaneous injection.
The immunization experiments of healthy mice with peptides derived from beta-adrenergic receptor and from 14-3-3, Snrpd1, and Atp5o lead to cardiac dysfunction. […] Left ventricle functionality was measured as % FS (FIG. 6A) and Ejection Fraction (% EF) (FIG. 6B), which measure the volumetric capacity of the left ventricle to pump blood. […]

C57BL6/J mice [3] = experiment: Immunization of healthy mice with single peptides in CFA/IFA, echocardiography; details: echocardiography at 2, 5 and 9 weeks after first subcutaneous injection; 100 μg peptide in CFA day 0, IFA boost day 21; vs CTR-
Description: C57BL6/J 8-week-old male mice were screened at baseline for heart functionality, via echocardiography, and randomly divided into 5 experimental groups. Mice belonging to control group (CTR−, only CFA) were injected subcutaneously (immunized, but without antigen: negative control) with 100 μl Complete Freud's Adjuvant (CFA) at day 0 and boosted with 100 μl of Incomplete Freud's Adjuvant (IFA) on day 21. Mice belonging to group 3 (CTR+) were injected subcutaneously (immunized, known antigen: positive control) with 100 μg of each of the three peptides (SEQ ID NOs. 15-17) derived from beta-adrenergic receptor and listed in the Table of FIG. 4, emulsified in Complete Freud's Adjuvant (CFA) at day 0 and boosted with 100 μg of the three peptides emulsified in Incomplete Freud's Adjuvant (IFA) on day 21. Mice belonging to group 4_A (Peptide 4_A) were injected subcutaneously (immunized) with 100 μg of the peptide of SEQ ID NO. 1, derived from 14-3-3 protein, emulsified in Complete Freud's Adjuvant (CFA) at day 0 and boosted with 100 μg of each of the three peptides emulsified in Incomplete Freud's Adjuvant (IFA) on day 21. Mice belonging to group 4_B (Peptide 4_B) were injected subcutaneously (immunized) with 100 μg of the peptide of SEQ ID NO. 5, derived from Snrpd1 protein, emulsified in Complete Freud's Adjuvant (CFA) at day 0 and boosted with 100 μg of each of the three peptides emulsified in Incomplete Freud's Adjuvant (IFA) on day 21. Mice belonging to group 4_C (Peptide 4_C) were injected subcutaneously (immunized) with 100 μg of the peptide of SEQ ID NO. 14, derived from Atp5o protein, emulsified in Complete Freud's Adjuvant (CFA) at day 0 and boosted with […] of each of the three peptides emulsified in Incomplete Freud's Adjuvant (IFA) on day 21. On day 0 and day 2, all the mice were intraperitoneally injected with 200 ng of Pertussis Toxin. Heart functionality of all mice was analyzed via echocardiography at 2, 5 and 9 weeks after the first subcutaneous injection. In FIG. 7, the results of echocardiography analysis of cardiac functionality parameters % FS and % EF of C57BL6/J mice immunized with the peptide of SEQ ID NO. 1 (14-3-3 protein), the peptide of SEQ ID NO. 5 (Snrpd1 protein), or the peptide of SEQ ID NO. 14 (Atp5o protein) are shown. […] Data are plotted as mean±SEM, (n=4-6). Two-way ANOVA and Tukey's multiple comparison test with matching subjects. * p<0.05, ** p<0.01, ***p<0.001.

Substance	ALDH activity of DC isolated from MLN [1]	mean fluorescence intensity (MFI) of Aldefluor dye in DC [1]	percentage of ALDH positive DC [1]	cardiac functionality, % EF (TAC-operated mice)	cardiac functionality, % FS (TAC-operated mice)	cardiac functionality, % FS (C57BL6/J mice [2])	cardiac functionality, Ejection Fraction (% EF) (C57BL6/J mice [2])	% EF (C57BL6/J mice [3])	% FS (C57BL6/J mice [3])
Group 4: combination of the three peptides of SEQ ID NOs. 1, 5 and 14, derived from murine 14-3-3, Snrpd1 and Atp5o proteins (chain 1 LGLALNFSVFYYEIL; chain 2 EPVQLETLSIRGNNIRYFILPDSLP; chain 3 LTANLMNLLAENGRL; listed as Homo sapiens, listed as Mus musculus)	significant increase in ALDH activity	significant increase	significant increase	significantly better cardiac functionality	significantly better cardiac functionality	significant reduction of cardiac functionality	significant reduction of cardiac functionality	–	–
Peptide 4_A: peptide of SEQ ID NO. 1, derived from 14-3-3 protein (LGLALNFSVFYYEIL; listed as Homo sapiens)	–	–	–	–	–	–	–	significantly reduced	significantly reduced
Peptide 4_B: peptide of SEQ ID NO. 5, derived from Snrpd1 protein (EPVQLETLSIRGNNIRYFILPDSLP; listed as Homo sapiens)	–	–	–	–	–	–	–	significantly reduced	significantly reduced
Peptide 4_C: peptide of SEQ ID NO. 14, derived from mouse Atp5o protein (LTANLMNLLAENGRL; listed as Mus musculus)	–	–	–	–	–	–	–	significantly reduced	significantly reduced
